# Laboratory results reported in ChEMBL document CHEMBL1201862, “PubChem BioAssay data set” (2004).
# The source made the active and inactive calls.
# Experiments:
# Cytochrome P450 1A2 = target: T1, Cytochrome P450 1A2 (Homo sapiens, UniProt P05177);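 further: PubChem cytochrome P450 panel assay, CYP1A2 panel member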
# T1 sequence (P05177 whole entry): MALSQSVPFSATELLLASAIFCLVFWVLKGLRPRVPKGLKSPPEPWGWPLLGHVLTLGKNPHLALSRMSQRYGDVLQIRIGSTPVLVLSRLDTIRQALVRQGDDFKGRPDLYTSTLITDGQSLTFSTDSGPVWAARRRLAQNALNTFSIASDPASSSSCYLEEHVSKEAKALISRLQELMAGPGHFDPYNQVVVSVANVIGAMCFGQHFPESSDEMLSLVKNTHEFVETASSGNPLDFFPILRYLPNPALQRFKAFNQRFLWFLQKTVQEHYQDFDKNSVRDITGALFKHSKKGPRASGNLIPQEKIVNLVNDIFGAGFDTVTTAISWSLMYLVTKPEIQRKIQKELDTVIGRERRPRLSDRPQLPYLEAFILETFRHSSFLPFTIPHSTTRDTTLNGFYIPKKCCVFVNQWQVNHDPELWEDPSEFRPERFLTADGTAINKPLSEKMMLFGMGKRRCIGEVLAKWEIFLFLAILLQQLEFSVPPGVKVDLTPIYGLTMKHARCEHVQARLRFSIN
# Cytochrome P450 3A4 [1] = target: T2, Cytochrome P450 3A4 (Homo sapiens, UniProt P08684);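 further: CYP3A4 tested as one member of a cytochrome P450 panel screen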
# Cytochrome P450 3A4 [2] = target: T2, Cytochrome P450 3A4; remark: listed apart in the source
# Cytochrome P450 2C9 = Cytochrome P450 2C9 (Homo sapiens, UniProt P11712)
# [3] = target: T3, Polyadenylate-binding protein 1 (Homo sapiens, UniProt P11940); experiment: PABP1 MLLE–PAM2 interaction inhibitors, dose response, miRNA deadenylation inhibitor project, biochemical, fluorescence polarization, Cy5-PAM2 peptide, secondary (AID 602260); format: functional; conditions: read-out: IC50_Mean
# [4] = target: T3, Polyadenylate-binding protein 1; experiment: PABP1 MLLE–PAM2 binding inhibitor potency, dose response, biochemical, fluorescence polarization, FITC-PAM2 peptide (AID 602259); format: functional; conditions: read-out: IC50_Mean
# [5] = target: T4, Endoribonuclease toxin MazF (Escherichia coli K-12, UniProt P0AE70); experiment: MazF toxin RNase activators, dose response, biochemical, fluorescence, single-stranded RNA substrate, uHTS hits (AID 588481); format: functional
# T4 sequence (P0AE70 whole entry): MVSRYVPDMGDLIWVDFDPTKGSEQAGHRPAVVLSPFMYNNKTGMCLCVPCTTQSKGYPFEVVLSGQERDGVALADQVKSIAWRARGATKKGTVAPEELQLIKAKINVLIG
# [6] = target: T4, Endoribonuclease toxin MazF; experiment: fluorescent RNA oligo signal without MazF, dose response, counter-screen for MazEF activator project, biochemical, fluorescence, single-stranded RNase substrate (AID 588502); format: functional
# Estrogen receptor = target: T5, Estrogen receptor (Homo sapiens, UniProt P03372);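 further: potency for inhibiting coactivator peptide recruitment to the receptor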
# T5 sequence (P03372 whole entry): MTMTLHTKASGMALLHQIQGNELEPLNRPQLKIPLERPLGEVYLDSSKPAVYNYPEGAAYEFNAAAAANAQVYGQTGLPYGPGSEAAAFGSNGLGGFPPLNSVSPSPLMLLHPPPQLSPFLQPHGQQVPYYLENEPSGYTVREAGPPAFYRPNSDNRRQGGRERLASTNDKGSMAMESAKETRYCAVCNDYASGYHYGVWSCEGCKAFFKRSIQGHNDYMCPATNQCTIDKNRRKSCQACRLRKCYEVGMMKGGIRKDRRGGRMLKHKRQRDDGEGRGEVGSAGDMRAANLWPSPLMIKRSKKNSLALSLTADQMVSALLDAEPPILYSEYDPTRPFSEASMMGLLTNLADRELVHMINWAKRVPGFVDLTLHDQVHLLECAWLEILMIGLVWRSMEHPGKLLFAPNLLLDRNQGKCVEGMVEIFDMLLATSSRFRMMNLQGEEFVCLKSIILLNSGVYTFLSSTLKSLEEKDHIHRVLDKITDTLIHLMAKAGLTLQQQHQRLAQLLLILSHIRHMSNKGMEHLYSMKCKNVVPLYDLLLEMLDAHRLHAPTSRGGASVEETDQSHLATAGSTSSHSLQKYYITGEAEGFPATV
# Cytochrome P450 2D6 = Cytochrome P450 2D6 (Homo sapiens, UniProt P10635);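 further: CYP2D6 member of a cytochrome P450 panel assay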
# [7] = NIH-3T3 fibroblast cytotoxicity, dose response, cytotoxicity control, cell-based, fluorescence, Alamar Blue, secondary assay (AID 2327); format: functional;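 further: NIH-3T3 mouse fibroblasts cultured with fluconazole at 8 µg/mL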
# [8] = insulin promoter down-regulators in MIN6 cells, imaging, high-content screening, mouse beta cells (AID 1628); format: functional
# [9] = cytotoxicity in MIN6 insulinoma cells, dose response, cytotoxicity control, cell-based, mouse insulinoma (AID 2122); format: functional;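 further: confirmatory high-throughput counterscreen run to flag cytotoxic compounds; mouse MIN-6 beta cells carrying an insulin promoter eGFP reporter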
# [10] = C. albicans growth with fluconazole, confirmation, fluorescence, retest (AID 2467); format: functional, cell-based
# [11] = inhibitors of intracellular T. cruzi replication, confirmation, NIH3T3 host cells, beta-gal luminescence (AID 2044); format: functional, cell-based;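 further: intracellular parasites grown in NIH/3T3 mouse fibroblasts as host cells; luminescent beta-galactosidase reporter signal from transgenic T. cruzi replicating inside host cells; inhibitors lower the luminescence signal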
# [12] = cytotoxicity toward NIH3T3 fibroblasts, dose response, counter-screen, cell-based, ATP luminescence, mouse fibroblasts (AID 2010); format: functional;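 further: cells exposed to compound for about 90 hours before reading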
# Cytochrome P450 2C19 = Cytochrome P450 2C19 (Homo sapiens, UniProt P33261); experiment: Cytochrome panel assay with activity outcomes. Panel member name: p450-cyp2c19 Compounds with AC50 equal or less than 10 uM are considered active; format: functional; conditions: read-out: AC50
# [13] = Shn3 3'UTR reporter inhibitors, dose response, cell-based, Clone20 osteoblasts, firefly luciferase, cherry-picked (AID 624132); format: functional;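 further: firefly luciferase luminescence from reporter carrying the Shn3 3'UTR in osteoblasts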
# [14] = HepG2 cell cytotoxicity, dose response, cytotoxicity control for Shn3 inhibitor project, CellTiter-Glo, cherry-picked (AID 624134); format: functional, cell-based
# [15] = control 3'UTR Renilla luciferase suppression, dose response, counter-screen for Shn3 inhibitor project, cell-based, Clone20-Shn3RL, cherry-picked (AID 624133); format: functional
# Fatty acid synthase [16] = target: T6, Fatty acid synthase (Homo sapiens, UniProt P49327); experiment: FAS thioesterase domain inhibitors, dose response, biochemical, endpoint fluorescence intensity, uHTS hits (AID 624327); format: functional;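 further: fluorescence from hydrolysis of an O-methyl fluorescein acyl ester substrate by the enzyme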
# Fatty acid synthase [17] = target: T6, Fatty acid synthase; experiment: FAS thioesterase domain inhibitors, dose response, biochemical, kinetic fluorescence intensity (AID 624326); format: functional;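 further: rate of fluorescence rise from hydrolysis of a fluorogenic O-methyl fluorescein ester substrate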
# Leucine aminopeptidase = target: T7, Leucine aminopeptidase (Plasmodium falciparum 3D7, UniProt Q8IL11); experiment: P. falciparum M17LAP inhibitors, primary screen, biochemical, fluorogenic H-Leu-NHMec substrate, 1536-well (AID 1619); format: functional
# T7 sequence (Q8IL11 whole entry): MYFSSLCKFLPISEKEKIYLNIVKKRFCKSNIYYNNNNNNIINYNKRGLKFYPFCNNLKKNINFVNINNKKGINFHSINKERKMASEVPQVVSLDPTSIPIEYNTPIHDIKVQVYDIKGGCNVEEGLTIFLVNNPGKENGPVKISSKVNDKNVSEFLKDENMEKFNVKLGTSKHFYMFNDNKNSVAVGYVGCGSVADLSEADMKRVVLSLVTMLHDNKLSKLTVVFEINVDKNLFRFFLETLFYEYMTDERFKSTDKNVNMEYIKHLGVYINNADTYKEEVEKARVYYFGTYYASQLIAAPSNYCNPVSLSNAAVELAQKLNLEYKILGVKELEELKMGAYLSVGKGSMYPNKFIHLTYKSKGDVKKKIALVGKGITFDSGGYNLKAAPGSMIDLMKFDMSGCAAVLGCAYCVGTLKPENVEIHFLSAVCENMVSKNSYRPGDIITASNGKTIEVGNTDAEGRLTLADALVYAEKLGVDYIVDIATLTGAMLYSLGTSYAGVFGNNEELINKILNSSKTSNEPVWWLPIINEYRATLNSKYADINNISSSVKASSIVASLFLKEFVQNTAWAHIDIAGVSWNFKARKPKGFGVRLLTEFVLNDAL
# [18] = microbe, parasite or virus in culture; format: functional; conditions: Mycobacterium tuberculosis
# Chain of Cytochrome P450 2C9 (P11712 whole entry): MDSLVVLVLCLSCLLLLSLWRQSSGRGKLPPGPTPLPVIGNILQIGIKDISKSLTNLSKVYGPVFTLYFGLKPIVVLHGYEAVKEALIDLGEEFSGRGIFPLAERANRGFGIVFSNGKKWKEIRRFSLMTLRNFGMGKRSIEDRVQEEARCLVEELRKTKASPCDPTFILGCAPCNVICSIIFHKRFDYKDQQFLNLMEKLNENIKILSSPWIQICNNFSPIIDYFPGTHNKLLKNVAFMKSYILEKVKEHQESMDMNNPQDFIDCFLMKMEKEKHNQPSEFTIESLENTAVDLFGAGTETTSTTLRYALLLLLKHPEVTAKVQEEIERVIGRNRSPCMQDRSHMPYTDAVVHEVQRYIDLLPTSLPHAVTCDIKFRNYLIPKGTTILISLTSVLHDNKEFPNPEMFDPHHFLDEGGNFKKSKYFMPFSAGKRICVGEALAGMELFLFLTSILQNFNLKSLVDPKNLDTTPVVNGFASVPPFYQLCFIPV
# T2 sequence (P08684 whole entry): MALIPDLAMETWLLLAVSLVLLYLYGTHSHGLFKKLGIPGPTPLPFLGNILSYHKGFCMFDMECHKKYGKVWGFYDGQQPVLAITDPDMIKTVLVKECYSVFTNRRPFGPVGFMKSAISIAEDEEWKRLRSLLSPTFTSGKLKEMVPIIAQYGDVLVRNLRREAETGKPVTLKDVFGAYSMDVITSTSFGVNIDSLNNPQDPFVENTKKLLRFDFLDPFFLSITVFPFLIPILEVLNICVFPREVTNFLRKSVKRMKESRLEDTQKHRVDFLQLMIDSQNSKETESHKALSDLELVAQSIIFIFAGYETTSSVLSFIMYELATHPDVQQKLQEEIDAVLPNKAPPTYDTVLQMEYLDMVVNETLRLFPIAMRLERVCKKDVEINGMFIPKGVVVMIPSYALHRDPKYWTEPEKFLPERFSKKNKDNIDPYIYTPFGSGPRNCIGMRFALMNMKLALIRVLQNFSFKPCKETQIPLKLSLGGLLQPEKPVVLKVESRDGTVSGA
# T6 sequence (P49327 whole entry, the tested form may be a part): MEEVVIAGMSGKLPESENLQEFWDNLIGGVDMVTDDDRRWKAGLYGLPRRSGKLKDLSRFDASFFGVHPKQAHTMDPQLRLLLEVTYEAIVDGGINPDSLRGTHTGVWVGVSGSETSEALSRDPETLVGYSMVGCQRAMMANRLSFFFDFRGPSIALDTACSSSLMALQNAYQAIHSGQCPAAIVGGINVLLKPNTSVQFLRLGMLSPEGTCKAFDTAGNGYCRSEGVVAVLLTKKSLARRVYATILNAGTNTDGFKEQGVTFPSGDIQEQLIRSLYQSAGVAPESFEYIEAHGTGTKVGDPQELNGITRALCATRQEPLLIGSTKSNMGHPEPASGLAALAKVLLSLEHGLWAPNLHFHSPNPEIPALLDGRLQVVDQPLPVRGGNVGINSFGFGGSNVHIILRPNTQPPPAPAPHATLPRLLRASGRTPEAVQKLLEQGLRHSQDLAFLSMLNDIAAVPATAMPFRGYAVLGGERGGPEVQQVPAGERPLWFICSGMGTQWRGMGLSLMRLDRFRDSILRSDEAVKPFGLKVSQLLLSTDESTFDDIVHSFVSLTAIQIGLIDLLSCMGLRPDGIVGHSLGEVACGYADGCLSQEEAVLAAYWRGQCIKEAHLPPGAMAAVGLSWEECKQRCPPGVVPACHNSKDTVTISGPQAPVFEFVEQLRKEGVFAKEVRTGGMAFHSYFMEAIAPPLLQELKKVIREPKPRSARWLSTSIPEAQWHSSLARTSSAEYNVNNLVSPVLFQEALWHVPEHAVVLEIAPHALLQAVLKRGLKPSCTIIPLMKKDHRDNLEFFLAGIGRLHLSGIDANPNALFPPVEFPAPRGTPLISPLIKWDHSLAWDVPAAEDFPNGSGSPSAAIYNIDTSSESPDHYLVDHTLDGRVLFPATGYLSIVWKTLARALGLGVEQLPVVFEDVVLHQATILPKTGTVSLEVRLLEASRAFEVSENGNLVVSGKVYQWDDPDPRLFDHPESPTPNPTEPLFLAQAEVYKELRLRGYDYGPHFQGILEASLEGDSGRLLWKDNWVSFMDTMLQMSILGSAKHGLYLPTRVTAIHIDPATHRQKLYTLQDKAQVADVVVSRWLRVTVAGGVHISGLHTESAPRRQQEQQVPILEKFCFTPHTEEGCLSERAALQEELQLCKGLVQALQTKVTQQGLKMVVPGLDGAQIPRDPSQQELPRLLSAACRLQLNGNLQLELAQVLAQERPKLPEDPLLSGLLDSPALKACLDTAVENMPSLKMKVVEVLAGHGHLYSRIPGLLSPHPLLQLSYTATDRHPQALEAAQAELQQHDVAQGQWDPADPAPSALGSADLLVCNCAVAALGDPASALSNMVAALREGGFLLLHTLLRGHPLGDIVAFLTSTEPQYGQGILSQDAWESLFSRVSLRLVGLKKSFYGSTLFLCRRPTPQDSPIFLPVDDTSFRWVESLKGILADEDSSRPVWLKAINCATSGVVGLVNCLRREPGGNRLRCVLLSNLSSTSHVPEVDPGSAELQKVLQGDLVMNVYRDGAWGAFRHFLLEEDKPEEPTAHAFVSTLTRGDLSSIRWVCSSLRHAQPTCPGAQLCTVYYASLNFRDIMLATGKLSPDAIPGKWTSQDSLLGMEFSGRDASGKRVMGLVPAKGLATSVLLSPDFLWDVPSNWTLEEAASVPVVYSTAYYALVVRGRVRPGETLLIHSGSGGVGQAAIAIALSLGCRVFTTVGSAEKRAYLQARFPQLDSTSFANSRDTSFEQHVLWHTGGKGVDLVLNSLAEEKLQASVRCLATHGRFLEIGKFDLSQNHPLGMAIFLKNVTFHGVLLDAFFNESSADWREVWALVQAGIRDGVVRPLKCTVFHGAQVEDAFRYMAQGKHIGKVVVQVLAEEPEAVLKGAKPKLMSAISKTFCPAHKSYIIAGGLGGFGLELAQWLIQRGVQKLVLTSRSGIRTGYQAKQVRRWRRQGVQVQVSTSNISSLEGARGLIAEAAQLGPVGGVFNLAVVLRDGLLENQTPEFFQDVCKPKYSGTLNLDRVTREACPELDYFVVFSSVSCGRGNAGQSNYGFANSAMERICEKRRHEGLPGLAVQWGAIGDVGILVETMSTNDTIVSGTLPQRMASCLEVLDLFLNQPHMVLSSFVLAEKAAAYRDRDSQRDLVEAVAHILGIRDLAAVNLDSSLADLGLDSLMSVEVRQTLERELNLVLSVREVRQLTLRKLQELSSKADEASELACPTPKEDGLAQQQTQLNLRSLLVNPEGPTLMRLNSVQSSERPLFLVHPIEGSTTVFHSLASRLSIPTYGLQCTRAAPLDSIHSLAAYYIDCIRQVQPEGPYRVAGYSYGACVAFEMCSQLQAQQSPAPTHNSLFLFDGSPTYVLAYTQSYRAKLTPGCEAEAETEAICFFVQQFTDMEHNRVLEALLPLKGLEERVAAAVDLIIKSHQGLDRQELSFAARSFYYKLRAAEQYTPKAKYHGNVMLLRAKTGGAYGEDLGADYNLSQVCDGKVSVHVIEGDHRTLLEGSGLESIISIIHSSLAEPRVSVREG
# T3 sequence (P11940 whole entry): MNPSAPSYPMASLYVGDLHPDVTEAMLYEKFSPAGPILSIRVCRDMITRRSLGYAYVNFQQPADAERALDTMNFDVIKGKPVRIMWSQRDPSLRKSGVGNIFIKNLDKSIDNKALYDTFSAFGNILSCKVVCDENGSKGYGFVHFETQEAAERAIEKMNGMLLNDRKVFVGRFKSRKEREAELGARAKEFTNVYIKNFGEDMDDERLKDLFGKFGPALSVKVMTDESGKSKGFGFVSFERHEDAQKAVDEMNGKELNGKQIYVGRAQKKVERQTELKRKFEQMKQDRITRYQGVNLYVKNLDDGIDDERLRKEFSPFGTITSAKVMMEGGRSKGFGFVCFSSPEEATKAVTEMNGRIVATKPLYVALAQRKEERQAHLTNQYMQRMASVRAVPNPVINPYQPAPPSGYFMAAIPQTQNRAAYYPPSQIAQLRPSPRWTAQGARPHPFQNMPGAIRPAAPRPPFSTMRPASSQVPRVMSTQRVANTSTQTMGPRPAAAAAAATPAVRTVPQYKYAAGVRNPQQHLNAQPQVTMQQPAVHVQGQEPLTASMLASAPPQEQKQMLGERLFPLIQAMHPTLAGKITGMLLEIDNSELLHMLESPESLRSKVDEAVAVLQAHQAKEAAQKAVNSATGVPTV
# Chain of Cytochrome P450 2D6 (P10635 whole entry): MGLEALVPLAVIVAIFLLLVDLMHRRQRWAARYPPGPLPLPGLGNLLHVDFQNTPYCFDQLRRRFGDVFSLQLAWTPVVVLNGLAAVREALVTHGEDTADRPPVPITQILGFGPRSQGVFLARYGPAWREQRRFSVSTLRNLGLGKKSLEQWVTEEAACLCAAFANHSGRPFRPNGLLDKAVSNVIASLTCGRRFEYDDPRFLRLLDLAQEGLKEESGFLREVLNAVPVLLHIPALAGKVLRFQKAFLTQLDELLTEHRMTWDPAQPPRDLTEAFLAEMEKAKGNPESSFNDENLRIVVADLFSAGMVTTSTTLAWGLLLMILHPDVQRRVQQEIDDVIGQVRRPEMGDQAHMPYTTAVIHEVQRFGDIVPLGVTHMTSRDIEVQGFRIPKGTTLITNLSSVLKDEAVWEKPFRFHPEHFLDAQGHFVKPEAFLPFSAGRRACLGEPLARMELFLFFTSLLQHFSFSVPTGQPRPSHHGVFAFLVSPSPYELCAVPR
compound,measurement,setting,value
O=S(=O)(c1cccc2nsnc12)N1CCCC1,AC50,Cytochrome P450 1A2,14.1 µM (inconclusive)
same,AC50,Cytochrome P450 3A4 [1],inconclusive
O=c1[nH]n(-c2cccc3cccnc23)c(=O)c2ccccc12,AC50,Cytochrome P450 1A2,6.31 µM (inconclusive)
same,AC50,Cytochrome P450 3A4 [2],25.1 µM (inconclusive)
same,AC50,Cytochrome P450 2C9,inconclusive
C/C(=N\NC(=S)NCCc1ccccc1)c1cccc(Br)c1,IC50,[3],> 66 µM (inactive)
same,IC50,[4],> 66 µM (inactive)
COc1ccc(OCCNc2cc(Cl)ccc2[N+](=O)[O-])cc1,EC50,[5],> 99 µM (inactive)
same,EC50,[6],> 99 µM (inactive)
O=C(OCCNc1ccc(C(F)(F)F)cc1[N+](=O)[O-])c1cc2ccccc2oc1=O,EC50,[5],27.7 µM (inactive)
same,EC50,[6],89.7 µM (inactive)
O=C(c1cccc(F)c1)N1CCC2(CC1)CCN(c1ccccc1)CC2,AC50,Cytochrome P450 3A4 [1],inconclusive
NC(=O)CSc1nnc(-c2cc(-c3cccs3)nc3ccccc23)o1,EC50,[5],> 99 µM (inactive)
same,EC50,[6],> 99 µM (inactive)
CC1=C(CC[C@H](C)CO)O[C@@H]2C[C@@H]3[C@H]4CC[C@H]5C[C@@H](O)CC[C@]5(C)[C@@H]4CC(=O)[C@@]3(C)[C@@H]12,AC50,Cytochrome P450 3A4 [1],inconclusive
COc1ccc(C(=O)N2CCC3(CC2)CCN(c2ccccc2)CC3)cc1,AC50,Cytochrome P450 3A4 [1],inconclusive
COc1ccccc1OCC(=O)Sc1ccc(C)cc1,IC50,[3],> 66 µM (inactive)
same,IC50,[4],> 66 µM (inactive)
COc1cc(NC(=O)COc2ccc(-n3cnnn3)cc2)c(OC)cc1Cl,IC50,Estrogen receptor,8.31 µM (active)
CCCn1nc2cc(C(=O)NC3CCCc4ccccc43)ccc2c1OCC (configuration not stated),AC50,Cytochrome P450 2D6,25.1 µM (inconclusive)
same,AC50,Cytochrome P450 3A4 [2],15.8 µM (inconclusive)
same,AC50,Cytochrome P450 2C9,inconclusive
C(#Cc1ccccc1)C[N+]1(CC#Cc2ccccc2)CCCCC1,EC50,[7],> 160 µM (inactive)
same,IC50,[8],< 250 nM (active)
same,IC50,[9],< 250 nM (active)
same,EC50,[10],> 38 µM (not active)
same,EC50,[11],1.88 µM (active)
same,EC50,[12],> 60 µM (not active)
C[C@H](N[C@@H](C)CCc1ccccc1)[C@H](O)c1ccc(O)cc1,AC50,Cytochrome P450 2C19,10 µM (inconclusive)
same,AC50,Cytochrome P450 3A4 [1],inconclusive
N#CCCn1c(=O)cnc2cnc(N3CCNCC3)nc21,AC50,Cytochrome P450 1A2,12.6 µM (inconclusive)
same,AC50,Cytochrome P450 2C9,inconclusive
Cc1ccc(NC(=O)CC2SC3=NCCN3C2=O)cc1 (configuration not stated),IC50,[3],> 66 µM (inactive)
same,IC50,[4],> 66 µM (inactive)
Cn1c(=O)n(C)c2cc([N+](=O)[O-])c(N3CCN(S(=O)(=O)c4ccc(C(C)(C)C)cc4)CC3)cc21,IC50,[8],2730 nM (active)
same,IC50,[9],4020 nM (active)
same,AC50,[13],3.53 µM (active)
same,AC50,[14],> 70 µM (inactive)
same,AC50,[15],9.33 µM (active)
O=C(c1ccc([N+](=O)[O-])cc1)N1CCC(Cc2ccccc2)CC1,IC50,Fatty acid synthase [16],10.9 µM (active)
same,IC50,Fatty acid synthase [17],8.61 µM (active)
O=C(CSc1ccc([N+](=O)[O-])cn1)Nc1ccc2c(c1)OCO2,IC50,Fatty acid synthase [16],0.981 µM (active)
same,IC50,Fatty acid synthase [17],0.951 µM (active)
O=C(Nc1cc[n+](-c2nc3ccccc3nc2[N-]S(=O)(=O)c2ccc(Cl)cc2)cc1)c1cccs1,EC50,[5],> 99 µM (inactive)
same,EC50,[6],> 99 µM (inactive)
COc1ccc(-n2c(SCC(=O)Nc3ccc4c(c3)OCO4)nnc2C(C)N2CCCCC2)cc1 (configuration not stated),IC50,Estrogen receptor,> 50 µM (not active)
CCOc1ccc(C(C)=O)cc1N1C(=O)C2C3C=CC(O3)C2C1=O (configuration not stated),AC50,Cytochrome P450 2C19,39.8 µM (inconclusive)
same,AC50,Cytochrome P450 2C9,inconclusive
O=C(O)c1cccc(S(=O)(=O)Nc2ccc(O)cc2Sc2nc3ccccc3s2)c1,IC50,Leucine aminopeptidase,9.02 µM (active)
CCC1CCCCN1C(=S)NC(=O)c1cccc([N+](=O)[O-])c1 (configuration not stated),IC50,[3],> 66 µM (inactive)
same,IC50,[4],> 66 µM (inactive)
COc1cc(CNc2nc[nH]n2)cc(Br)c1OC,IC50,Leucine aminopeptidase,8.2 µM (active)
CCN1CCN(Cc2ccc(NC(=O)Nc3ccc(OC)cc3)cc2)CC1,IC50,Leucine aminopeptidase,25.1 µM (active)
NC(Cc1ccc([N+](=O)[O-])cc1)=NOC(=O)c1ccc2ccccc2c1,IC50,Estrogen receptor,> 50 µM (not active)
same,CC50,[18],33 µM (active)
CCS(=O)(=O)N1CCN(c2c(Cl)cccc2[N+](=O)[O-])CC1,AC50,Cytochrome P450 1A2,15.8 µM (inconclusive)
same,AC50,Cytochrome P450 3A4 [1],inconclusive
O=C(O)CCCNC(=O)/C(=C\C=C\c1ccccc1)NC(=O)c1ccccc1Cl,IC50,Leucine aminopeptidase,86.8 µM (active)
CC(C)(C)n1ncc2c(=O)n(CC(=O)NCc3ccccc3Cl)cnc21,AC50,Cytochrome P450 2D6,11.2 µM (inconclusive)
same,AC50,Cytochrome P450 2C9,inconclusive
O=[N+]([O-])c1ccc(S(=O)(=O)Nc2ccc(-c3ccccc3)cc2)cc1,IC50,Fatty acid synthase [16],5.95 µM (active)
same,IC50,Fatty acid synthase [17],6.47 µM (active)
